Measured values as given in patent US20040033213A1, “Methods of modulating dendritic cells using adjuvants” (Corixa Corporation, priority 2002, published 2004).

Tests used:
[1] = tested on: murine bone marrow derived DCs + D011.10 T cells; test: APC function of ova-pulsed, lipid A potentiated murine DCs co-cultured with D011.10 T cells (cytokine ELISA); format: cell-based; conditions: for IFN-γ release by D011.10 T cells (in words): DCs precultured 38 hours, FIG. 3; for IL-2 secretion (in words): all T cell:APC ratios, FIG. 1; for IL-12 (p70) in DC+D011.10 co-cultures (in words): FIG. 5; for release of IL-12 (p40) homodimer in DC+D011.10 co-cultures (in words): FIG. 7
Description: These antigen pulsed, lipid A potentiated cells were then washed thoroughly and titered against ova-specific T cell effector cells in vitro at an APC: T cell ratio titration of 1:1 out to as high as 1:512. The effector T cells in this in vitro assay were the antigen naive, but antigen (ova) specific, MHC restricted I-A^d splenic T cells from transgenic D011.10 mice.
D011.10 TCR-transgenic mice were used in these experiments as donors of antigen specific naive T cells. In their germline DNA these mice contain rearranged TCR-Vα and -Vβ genes that encode a T cell receptor (TCR) specific for the ovalbumin peptide 323-339 bound to IA^d (Balb/c) Class II MHC molecules. The transgenic ova peptide specific TCR can be detected with the KJ1-26 monoclonal antibody (mAb) that binds only to this particular TCR heterodimer. These cells provide a ready source of “normal” antigen (ova)-specific effector T cells. Effective antigen-mediated APC stimulation of those T cells is generally measured by ELISA quantitation of IL-2 or IFN-γ in the culture supernatants of DC+D011.10 T cells after 24-48 hours of incubation.
In one experiment, murine bone marrow derived DCs (6 day cultures) were pulsed with ova (50 μg/ml-5×10^5 cells/ml) and then potentiated overnight with LPS(R595), MPL® immunostimulant-S, RC-527, RC-529 or RC-544 prior to being cultured together with naive D011.10 effector T cells (FIGS. 1-7). The APC function of these DCs as measured by their ability to stimulate IL-2, IFN-γ IL-12 (p70) and IL-12 (p40) secretion in the DC+D011.10 co-culture systems was analyzed. All of the data shown in FIGS. 1-7 was developed from DCs maintained in lipid A induction cultures for either 15 or 38 hours prior to use in the T cell assay.

[2] = tested on: KJ1 positive D011.10 CD4 T cells; test: OVA pulsed DC transfer into D011.10 loaded Balb/c mice; format: in vivo; conditions: for Total KJ1 Positive Cells/Spleen: others 100 ng/ml
Method: In a second experiment 6-7 day bone marrow derived (Balb/c) DCs were pulsed with antigen and subsequently stimulated overnight with LPS, MPL® immunostimulant-S, and RC-527 (Table 6). 5×10^6 D011.10 CD4 (KJ1-positive) T cells were transferred into Balb/c mice, and 24 hours later ova-pulsed cultured, DCs from the control group (pulsed with ova only) and the indicated test DCs potentiated with LPS, MPL® immunostimulant-S or RC-527 were also injected intravenously. […] The transferred DCs stimulated with ova only, ova+LPS and ova+MPL® immunostimulant-S produced a similar effect in inducing the amplification of D011.10 T lymphocyte numbers above the value observed when untreated DCs (i.e., no ova and no lipid A) were used as the putative APC source and transfected into Balb/c mice preinjected with KJ1 CD4 cells.
5×10^6 KJ1 positive D011.10 spleen cells were injected into Balb/c mice (I.V.) on day zero minus 1; 24 hrs later 5×10^6 DC's from the indicated in vitro induction test groups were injected I.V. and the spleens from test animals were harvested 3 and 5 days later for total KJ1 enumeration.

[3] = tested on: cryogenically stored 10 day murine DCs + D011.10 effector T cells; test: Cryogenically preserved 10 day murine DCs in the D011.10 T cell assay (IFN-γ ELISA); format: cell-based
Method: In order to determine if 10 day GM-CSF precultured DCs could be recovered from cryogenic storage and still retain their functional potential, studies were carried out to determine the functional integrity of LPS- and RC-527-stimulated, cryogenically preserved, 10 day DCs in the D011.10 T cell assay system. Specifically, 10 day GM-CSF-precultured DCs were stored in liquid nitrogen for several weeks. The cells were subsequently thawed and maintained for 24 hours in tissue culture in the presence of GM-CSF. After 24 hours in this “resting” culture, DCs were pulsed with ova for four hours and potentiated with LPS for 24 hours prior to placing them against D011.10 effector T cells at 4:1 and 8:1 ratios.
D011.10 effector T cell cultures were maintained for 24 hours and 48 hours, and culture supernatants were collected at both time points. These supernatants were tested for IFN-γ using a commercial ELISA system. The IFNγ response induced either by antigen-pulsed, lipid A stimulated DCs after 24 hours incubation with D011.10 T cells (FIG. 13a) or by LPS and RC-527 stimulated, cryogenically stored, cultured DCs after 48 hours of incubation with D011.10 effector T cells (FIG. 13b) was measured.

[4] = tested on: cultured human dendritic cells (DC); test: Flow cytometry of cell surface activation markers on human DCs restimulated 72 hours with AGPs (titration); format: cell-based; conditions: titration 0.1-2 μg/ml, FIG. 18

Structure (SMILES)	IFN-γ release by D011.10 T cells (in words) [1]	IL-2 secretion (in words) ([1]; DCs prestimulated 15 hours)	IL-12 (p70) in DC+D011.10 co-cultures (in words) [1]	release of IL-12 (p40) homodimer in DC+D011.10 co-cultures (in words) [1]	IFN-γ secretion by D011.10 cells (in words) ([1]; DCs prestimulated 15 hours, FIG. 2)	IFN-γ secretion at T cell:APC ratio 32:1 (in words) ([1]; FIG. 4)	Total KJ1 Positive Cells/Spleen ([2]; Day 3 after I.V. transfer of 5×10^6 OVA pulsed DCs stimulated in vitro, LPS 10 ng/ml)	Total KJ1 Positive Cells/Spleen ([2]; Day 5 after I.V. transfer of 5×10^6 OVA pulsed DCs stimulated in vitro, LPS 10 ng/ml)	splenic KJ1+ CD4 T cell numbers (in words) ([2]; day 3 and day 5 after transfer of stimulated DCs)	KJ1+ CD4 response, % of all splenic CD4 cells ([2]; second, similar DC transfer experiment, at 5 days, LPS 10 ng/ml, MPL-S 100 ng/ml)	IFN-γ response of cryogenically stored DCs after antigen pulsing and activation (in words) ([3]; compared with unfrozen 10 day DCs)	IFN-γ response, 48 hours versus 24 hours of incubation (in words) ([3]; cryogenically stored DCs, FIG. 13)	CD86 expression, mean channel fluorescence (in words) [4]
CCCCCCCCCCCCCC(=O)O[C@H](CCCCCCCCCCC)CC(=O)NCCO[C@@H]1O[C@H](CO)[C@@H](OP(=O)(O)O)[C@H](OC(=O)C[C@@H](CCCCCCCCCCC)OC(=O)CCCCCCCCCCCCC)[C@H]1NC(=O)C[C@@H](CCCCCCCCCCC)OC(=O)CCCCCCCCCCCCC.CCN(CC)CC [RC-529, 2-[(R)-3-Tetradecanoyloxytetradecanoylamino]ethyl 2-Deoxy-4-O-phosphono-3-O-[(R)-3-tetradecanoyoxytetradecanoyl]-2-[(R)-3-tetradecanoyoxytetradecanoylamino]-β-D-glucopyranoside triethylammonium salt]	very comparable to each other	comparable in their ability to stimulate IL-2 secretion	weakest ability	moderately less potent than either RC-544 or MPL® immunostimulant-S									
CCCCCCCCCCCC(CC(=O)NC(COC1OC(CO)C(OP(=O)(O)O)C(OC(=O)CC(CCCCCCCCCCC)OC(=O)CCCCCCCCC)C1NC(=O)CC(CCCCCCCCCCC)OC(=O)CCCCCCCCC)C(=O)O)OC(=O)CCCCCCCCC (centres unmarked) [RC-527]	generally more potent	comparable in their ability to stimulate IL-2 secretion	most potent	most potent effect	high levels of IFN-γ release	comparable to that observed with LPS	4.1 × 10^6 Cells/Spleen	3.0 × 10^6 Cells/Spleen	higher levels of splenic KJ1^+ CD4 T cell numbers than any of the other test groups at both time points	3.9%	fully capable of supporting an IFNγ response	significantly stronger IFN-γ response after 48 hours	highest stimulation of CD86 expression over most of the titration range
